These results are taken from US10174035B2, “6-morpholinyl-2-pyrazolyl-9H-purine derivatives and their use as PI3K inhibitors” (Daiichi Sankyo Company, Limited, priority 2015, dated 2019).

Series [1] concerns the target recombinant PI3K δ enzyme (Homo sapiens (Human), UniProt O00329). The series is described as follows: In vitro enzyme assay (Kinase-Glo luminescent kinase assay), PI3Kδ. It is filed as biochemical. The procedure, abridged: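 Each recombinant human PI3K isoform at 2.29 μg/mL with 60 μM PIP2 and 10 μM ATP in HEPES pH 7.4, NaCl, CHAPS, MgCl2, DTT, 2 hours at room temperature. Remaining ATP read by Kinase-Glo luminescence relative to no-enzyme blanks.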
(In Kinase-Glo more light means more ATP remaining.)

In series [2] the test system is eosinophil count in bronchoalveolar lavage fluid. The series is described as follows: Ovalbumin-induced airway eosinophilia model in Brown Norway rats. The class given is in vivo. Conditions: oral; for ED50: bid, absolute eosinophil count in BAL fluid; for Percent inhibition of BAL eosinophil count at 3 mg/kg: ovalbumin challenge. As for the experimental part:
The protocols were followed in similar fashion as described in Clin. Exp. Immunol., 2001; 126:9-15 and J. Pharmacol. Exp. Ther., 2011; 337:145-54. Male Brown Norway rats were sensitized by intraperitoneal injection of a suspension of 1 mg of ovalbumin and 100 mg of aluminum hydroxide (in sterile 0.9% saline) on day 0 and 7. On day 14, the compounds were administered to the rats by oral gavage. One hour after oral administration, the animals were placed into a perspex chamber and exposed to an aerosol of 5% ovalbumin for ten minutes. Compounds were administered on Day 14 and Day 15 either once or twice daily. Forty-eight hours after ovalbumin challenge, the animals were euthanized and bronchoalveolar lavage fluid was collected. The cell suspensions were processed and absolute eosinophil count was enumerated.

Series [3] in a line: Solubility in Japanese Pharmacopeia First Fluid (JP1) and Second Fluid (JP2). Conditions: thermodynamic from solid, room temperature. The class given is physicochemical. As for the experimental part: A 10 mmol/L solution of the test compound was prepared in DMSO and dispensed 100 μL of 10 mmol/L DMSO stock solutions into labeled glass tubes in duplicate, one for Japanese Pharmacopeia First Fluid (JP1) and second for Japanese Pharmacopeia Second Fluid (JP2). After evaporation of DMSO from each tube, 500 μL of JP1 and JP2 fluid were added in each tube, respectively. These tubes were sonicated for 1 minute and placed on shaker for 30 minutes with an interval of 30 seconds at every 5 minute. Tubes were placed in dark at room temperature for 1 hour and solution was filtered through membrane filter. The filtrate was diluted 2-fold and 10-fold. The resulting test solutions was analyzed and quantified against the standards using UPLC (standard preparation-10 mmol/L solution in DMSO is serially diluted with 50% aqueous acetonitrile solution to prepare 2 solutions; 100 μmol/L standard solution and 5 μmol/L standard solution).

The next series concerns the target PI3Kγ (Homo sapiens (Human), UniProt P48736). Description: In vitro enzyme assay (Kinase-Glo), selectivity, PI3Kγ. It is filed as biochemical. The note with it: enzyme 2.29 μg/mL; ATP 10 μM; PIP2 60 μM; 2 hours. As for the experimental part: The Kinase-Glo luminescent kinase assay kit (from Promega) was used to measure kinase activity. In this assay, amount of ATP remaining in solution following a kinase reaction is measured. […] The reaction mixture was incubated for 2 hours at room temperature. At the end of incubation period the equal volume of Kinase-Glo plus (Promega, V3772), was added per well and the luminescence was measured after incubating for 10 minutes at room temperature in dark. Results were calculated by measuring the luminescence units of test samples to blanks containing no enzyme.
The compounds of the present invention were tested for their selectivity for PI3Kδ over PI3Kα, PI3Kβ and PI3Kγ following the above assay using specific recombinant enzymes (Proteros, Germany) for each kinase. Assay condition of kinase assay (PI3Kα, PI3Kβ, PI3Kγ and PI3Kδ) was as follows.

Series [4] deals with IFN-γ release in mouse splenocytes. The series is described as follows: Phytohaemagglutinin (PHA)-induced interferon (IFN)-gamma release in mouse splenocytes. More on the design: species or system C57BL/6 mouse. Conditions: Splenocyte, PHA (10 μg/ml) for 48 hours, IFN-γ by ELISA, read-out: Cell Based IC50. As for the experimental part:
Effect of compounds on mitogen-induced IFN-γ release in mouse splenocytes was used to evaluate their potency in cell-based assay system [Blood (2010) 115: 2203-2213; Current Protocols in Immunology (2004) 3.12.1-3.12.20].
Mouse splenocytes were obtained from the spleen of a C57BL/6 mouse and plated at a density of 0.25 million cells/well in a 96 well tissue culture plate. The effect of the compounds to inhibit IFN-γ release was evaluated by treating the splenocytes with various concentrations of the test compounds followed by stimulation with PHA (10 μg/ml) for 48 hours. The IFN-γ release in the cell culture supernatant was quantified by ELISA as per the manufacturer's protocol (BD Biosciences, #555138).
In general terms: ELISA stands for enzyme-linked immunosorbent assay.

The target in another series is PI3Kβ (Homo sapiens (Human), UniProt P42338). Description: In vitro enzyme assay (Kinase-Glo), selectivity, PI3Kβ. The class given is biochemical. Conditions: enzyme 2.29 μg/mL; ATP 10 μM; PIP2 60 μM; 2 hours. As for the experimental part:
(§1) The Kinase-Glo luminescent kinase assay kit (from Promega) was used to measure kinase activity. In this assay, amount of ATP remaining in solution following a kinase reaction is measured. The effect of compounds on PI3Kδ inhibition was carried out by adding 2.29 μg/ml of recombinant PI3K δ enzyme (Proteros, Germany) to reaction mixture containing assay buffer (50 mM HEPES, pH 7.4, 50 mM NaCl, 0.05% CHAPS) supplemented with 10 mM MgCl2, 5 mM DTT, 60 μM Phosphatidyl inositol bisphosphate (PIP2) and 10 μM ATP in the absence or presence of different concentrations of the compounds in a final volume of 15 μl/well, in a 384 well plate. The reaction mixture was incubated for 2 hours at room temperature. At the end of incubation period the equal volume of Kinase-Glo plus (Promega, V3772), was added per well and the luminescence was measured after incubating for 10 minutes at room temperature in dark. Results were calculated by measuring the luminescence units of test samples to blanks containing no enzyme.
(§2) The compounds of the present invention were tested for their selectivity for PI3Kδ over PI3Kα, PI3Kβ and PI3Kγ following the above assay using specific recombinant enzymes (Proteros, Germany) for each kinase. Assay condition of kinase assay (PI3Kα, PI3Kβ, PI3Kγ and PI3Kδ) was as follows. Enzyme: 2.29 μg/mL; ATP: 10 μM; PIP2 substrate: 60 μM and Reaction Time: 2 hours.

A further series has as its target PI3Kα (Homo sapiens (Human), UniProt P42336). The series is described as follows: In vitro enzyme assay (Kinase-Glo), selectivity, PI3Kα. It is filed as biochemical. Conditions: enzyme 2.29 μg/mL; ATP 10 μM; PIP2 60 μM; 2 hours. As for the experimental part:
as §1, §2

Series [5] relates to eosinophil count in bronchoalveolar lavage fluid. Description: House dust mite (HDM) induced chronic asthma model in Balb/c mice. It is filed as in vivo. The note with it: oral twice daily from week 3 to week 5; absolute eosinophil count in BAL fluid. As for the experimental part: The protocol was followed as described in Am. J. Respir. Crit. Care Med., 2004; 169: 378-385. Female Balb/c mice were exposed to purified HDM (Dermatophagoides pteronyssinus) extract, intranasally (25 μg of protein in 20 μl of saline) for 5 days/week for up to five consecutive weeks. Compounds were administered orally twice daily from week 3 to week 5. Forty-eight hours after last HDM exposure, the animals were euthanized and bronchoalveolar lavage fluid was collected. The cell suspensions were processed and absolute eosinophil count was enumerated.

Setting [6] is: pH 1.2, simulated gastric fluid, Japanese Pharmacopeia First Fluid (JP1), read-out: Solubility JP1.
Setting [7] is: pH 6.8, aqueous buffer, Japanese Pharmacopeia Second Fluid (JP2), read-out: Solubility JP2.
The mark [8] stands for this setting: enzyme 2.29 μg/mL, ATP 10 μM, PIP2 60 μM, 2 hours.

In brackets after ≈: the same amount, converted by molar mass. Where two headings read alike, the source gives them in different places.

Sequence of PI3Kβ (P42338 whole entry, species assumed): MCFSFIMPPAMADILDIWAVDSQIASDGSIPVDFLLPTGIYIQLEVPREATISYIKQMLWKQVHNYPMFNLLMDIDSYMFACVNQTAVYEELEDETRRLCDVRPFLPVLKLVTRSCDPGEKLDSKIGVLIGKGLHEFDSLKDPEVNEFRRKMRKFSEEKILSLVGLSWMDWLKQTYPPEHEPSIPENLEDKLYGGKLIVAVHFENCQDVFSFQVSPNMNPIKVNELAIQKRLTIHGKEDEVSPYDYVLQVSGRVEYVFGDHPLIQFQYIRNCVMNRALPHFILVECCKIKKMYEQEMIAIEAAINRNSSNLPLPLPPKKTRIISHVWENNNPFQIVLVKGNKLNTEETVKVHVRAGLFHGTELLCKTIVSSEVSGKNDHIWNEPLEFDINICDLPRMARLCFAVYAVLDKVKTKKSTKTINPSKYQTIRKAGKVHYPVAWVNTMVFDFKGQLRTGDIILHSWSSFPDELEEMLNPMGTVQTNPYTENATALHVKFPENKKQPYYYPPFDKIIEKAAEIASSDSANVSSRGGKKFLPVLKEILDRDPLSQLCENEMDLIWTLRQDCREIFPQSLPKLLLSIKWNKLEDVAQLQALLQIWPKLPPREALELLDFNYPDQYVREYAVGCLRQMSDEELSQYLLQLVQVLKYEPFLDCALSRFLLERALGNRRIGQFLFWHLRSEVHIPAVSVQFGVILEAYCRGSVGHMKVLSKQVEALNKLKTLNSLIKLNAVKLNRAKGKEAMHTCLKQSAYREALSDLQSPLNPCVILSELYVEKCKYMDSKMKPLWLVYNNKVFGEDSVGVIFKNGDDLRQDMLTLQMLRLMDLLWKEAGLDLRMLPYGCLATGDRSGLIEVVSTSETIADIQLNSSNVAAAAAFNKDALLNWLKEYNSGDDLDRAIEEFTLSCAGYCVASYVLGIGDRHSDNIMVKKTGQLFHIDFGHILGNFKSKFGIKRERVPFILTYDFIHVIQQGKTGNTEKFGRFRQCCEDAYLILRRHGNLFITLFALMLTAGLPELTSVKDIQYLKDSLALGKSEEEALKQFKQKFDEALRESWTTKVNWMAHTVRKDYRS
Sequence of PI3Kβ (P27986 whole entry partner, species assumed): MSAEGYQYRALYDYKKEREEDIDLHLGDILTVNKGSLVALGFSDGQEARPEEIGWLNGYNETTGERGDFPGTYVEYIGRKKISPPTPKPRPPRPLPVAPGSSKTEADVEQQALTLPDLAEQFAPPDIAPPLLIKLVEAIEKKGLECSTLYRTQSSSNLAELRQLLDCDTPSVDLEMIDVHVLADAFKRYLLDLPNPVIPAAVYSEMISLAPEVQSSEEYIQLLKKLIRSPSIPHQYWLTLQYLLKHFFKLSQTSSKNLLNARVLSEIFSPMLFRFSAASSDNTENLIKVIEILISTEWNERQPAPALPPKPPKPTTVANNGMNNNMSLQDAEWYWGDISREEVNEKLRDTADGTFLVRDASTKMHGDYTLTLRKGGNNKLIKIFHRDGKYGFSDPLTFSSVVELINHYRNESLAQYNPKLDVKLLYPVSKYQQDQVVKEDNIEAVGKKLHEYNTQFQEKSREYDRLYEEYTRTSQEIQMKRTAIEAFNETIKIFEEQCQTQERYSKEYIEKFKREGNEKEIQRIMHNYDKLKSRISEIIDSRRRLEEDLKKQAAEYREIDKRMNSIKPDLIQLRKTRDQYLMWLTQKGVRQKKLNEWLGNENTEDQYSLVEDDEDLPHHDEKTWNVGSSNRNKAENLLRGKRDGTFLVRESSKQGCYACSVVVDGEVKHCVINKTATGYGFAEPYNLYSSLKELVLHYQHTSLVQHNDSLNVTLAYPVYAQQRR
Sequence of recombinant PI3K δ enzyme (O00329 whole entry, species assumed, canonical isoform): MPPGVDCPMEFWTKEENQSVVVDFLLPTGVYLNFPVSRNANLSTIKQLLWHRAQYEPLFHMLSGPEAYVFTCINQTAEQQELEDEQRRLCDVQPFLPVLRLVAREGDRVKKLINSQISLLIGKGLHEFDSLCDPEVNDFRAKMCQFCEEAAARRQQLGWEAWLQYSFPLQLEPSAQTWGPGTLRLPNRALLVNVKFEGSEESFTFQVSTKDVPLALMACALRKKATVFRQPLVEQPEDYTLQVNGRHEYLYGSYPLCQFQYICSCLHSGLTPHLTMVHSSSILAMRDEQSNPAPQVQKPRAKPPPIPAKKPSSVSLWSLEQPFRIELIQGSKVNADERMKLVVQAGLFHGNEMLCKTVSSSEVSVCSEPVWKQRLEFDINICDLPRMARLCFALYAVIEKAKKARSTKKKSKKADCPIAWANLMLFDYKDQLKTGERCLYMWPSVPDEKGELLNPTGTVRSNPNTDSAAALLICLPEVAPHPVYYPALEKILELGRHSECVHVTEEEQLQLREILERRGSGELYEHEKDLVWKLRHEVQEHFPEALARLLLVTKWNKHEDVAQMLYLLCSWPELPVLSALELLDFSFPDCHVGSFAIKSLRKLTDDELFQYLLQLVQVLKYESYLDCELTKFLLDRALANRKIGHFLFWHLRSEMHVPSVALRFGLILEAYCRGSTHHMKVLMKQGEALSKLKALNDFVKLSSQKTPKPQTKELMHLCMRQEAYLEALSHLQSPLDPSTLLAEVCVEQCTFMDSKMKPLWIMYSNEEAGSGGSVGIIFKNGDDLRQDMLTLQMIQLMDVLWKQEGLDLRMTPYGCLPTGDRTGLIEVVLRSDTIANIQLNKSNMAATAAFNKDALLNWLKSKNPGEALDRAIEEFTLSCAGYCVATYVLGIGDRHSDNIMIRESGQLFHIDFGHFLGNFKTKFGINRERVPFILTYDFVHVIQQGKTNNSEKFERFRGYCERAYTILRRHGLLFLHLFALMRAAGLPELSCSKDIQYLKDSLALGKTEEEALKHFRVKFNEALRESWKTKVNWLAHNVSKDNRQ
Sequence of recombinant PI3K δ enzyme (P27986 whole entry partner, species assumed, canonical isoform): as the sequence (P27986 whole entry partner, species assumed) above
Sequence of PI3Kγ (P48736 whole entry, species assumed): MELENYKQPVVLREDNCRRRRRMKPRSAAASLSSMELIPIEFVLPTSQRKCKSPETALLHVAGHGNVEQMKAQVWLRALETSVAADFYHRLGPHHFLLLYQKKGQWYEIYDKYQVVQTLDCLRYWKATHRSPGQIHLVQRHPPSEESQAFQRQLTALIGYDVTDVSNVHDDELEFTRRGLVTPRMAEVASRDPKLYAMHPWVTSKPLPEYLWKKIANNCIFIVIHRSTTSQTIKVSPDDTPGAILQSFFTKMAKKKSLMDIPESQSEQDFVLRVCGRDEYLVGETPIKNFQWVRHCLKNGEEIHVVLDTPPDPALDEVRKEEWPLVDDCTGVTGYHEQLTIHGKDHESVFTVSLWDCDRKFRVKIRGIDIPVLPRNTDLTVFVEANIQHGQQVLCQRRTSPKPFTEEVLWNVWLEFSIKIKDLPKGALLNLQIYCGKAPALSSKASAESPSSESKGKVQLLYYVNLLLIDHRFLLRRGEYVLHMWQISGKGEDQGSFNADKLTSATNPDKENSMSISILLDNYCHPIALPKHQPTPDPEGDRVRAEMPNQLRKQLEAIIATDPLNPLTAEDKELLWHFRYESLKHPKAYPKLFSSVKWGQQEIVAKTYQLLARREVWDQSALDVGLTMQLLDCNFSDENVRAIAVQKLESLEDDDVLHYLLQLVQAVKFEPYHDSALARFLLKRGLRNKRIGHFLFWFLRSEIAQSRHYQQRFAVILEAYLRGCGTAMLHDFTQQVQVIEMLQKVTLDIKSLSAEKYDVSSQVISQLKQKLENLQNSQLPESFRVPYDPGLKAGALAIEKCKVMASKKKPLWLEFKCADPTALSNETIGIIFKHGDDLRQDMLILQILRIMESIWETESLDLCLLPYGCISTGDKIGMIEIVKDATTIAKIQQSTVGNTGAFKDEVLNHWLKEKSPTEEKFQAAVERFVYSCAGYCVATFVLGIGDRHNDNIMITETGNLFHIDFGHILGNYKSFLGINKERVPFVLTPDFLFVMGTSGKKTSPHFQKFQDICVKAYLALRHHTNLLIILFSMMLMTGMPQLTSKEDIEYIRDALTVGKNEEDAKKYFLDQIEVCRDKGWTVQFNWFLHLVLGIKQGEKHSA
Sequence of PI3Kα (P42336 whole entry, species assumed): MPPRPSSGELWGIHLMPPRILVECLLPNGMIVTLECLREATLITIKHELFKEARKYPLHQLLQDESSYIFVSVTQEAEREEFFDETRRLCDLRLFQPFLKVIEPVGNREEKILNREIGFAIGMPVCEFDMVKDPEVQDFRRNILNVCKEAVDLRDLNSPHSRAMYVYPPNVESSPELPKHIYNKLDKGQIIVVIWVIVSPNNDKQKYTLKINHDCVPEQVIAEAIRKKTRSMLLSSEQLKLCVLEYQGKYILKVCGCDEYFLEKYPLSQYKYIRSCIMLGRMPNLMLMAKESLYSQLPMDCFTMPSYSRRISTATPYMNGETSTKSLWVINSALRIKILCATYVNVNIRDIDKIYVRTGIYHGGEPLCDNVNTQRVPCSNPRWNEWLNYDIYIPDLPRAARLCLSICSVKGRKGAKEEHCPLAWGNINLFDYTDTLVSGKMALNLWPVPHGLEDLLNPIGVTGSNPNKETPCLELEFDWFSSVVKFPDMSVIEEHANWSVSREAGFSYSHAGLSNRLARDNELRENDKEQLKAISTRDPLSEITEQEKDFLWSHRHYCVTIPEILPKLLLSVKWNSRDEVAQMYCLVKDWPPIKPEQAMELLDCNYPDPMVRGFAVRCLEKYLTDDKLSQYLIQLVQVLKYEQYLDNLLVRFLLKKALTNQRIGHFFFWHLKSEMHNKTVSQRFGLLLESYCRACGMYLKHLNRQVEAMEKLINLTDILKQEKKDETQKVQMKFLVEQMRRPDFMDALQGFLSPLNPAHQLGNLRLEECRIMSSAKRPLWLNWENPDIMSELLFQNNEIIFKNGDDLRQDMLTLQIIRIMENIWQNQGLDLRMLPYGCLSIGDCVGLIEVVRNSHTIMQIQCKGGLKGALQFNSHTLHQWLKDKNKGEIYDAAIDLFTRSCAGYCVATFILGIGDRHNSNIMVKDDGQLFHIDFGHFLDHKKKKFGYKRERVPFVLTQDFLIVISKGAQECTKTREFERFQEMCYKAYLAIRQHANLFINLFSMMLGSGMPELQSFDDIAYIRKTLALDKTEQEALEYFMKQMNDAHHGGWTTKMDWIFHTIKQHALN
Sequence of PI3Kα (P27986 whole entry partner, species assumed): as the sequence (P27986 whole entry partner, species assumed) above

The IC50 is the concentration that gives 50% inhibition. As usually defined, the solubility is the concentration that dissolves in the medium under given conditions. Consider `Cc1nn(C)cc1-c1nc2[nH]c(C(=O)N3CCC(N4CCOCC4)CC3)nc2c(N2CCOCC2)c1F` [compound 96, [5-(1,3-Dimethyl-1H-pyrazol-4-yl)-6-fluoro-7-(morpholin-4-yl)-3H-imidazo[4,5-b]pyridin-2-yl][4-(morpholin-4-yl)piperidin-1-yl]methanone], for which, in series [1], the IC50 was determined as 3 nM. Moreover, the ED50 in series [2] is 2.5 mg/kg, bid. Moreover, the solubility at 30 min in series [3] (setting [6]) was over 1020 µg/mL; in series [3] (setting [7]) it was 424 µg/mL (≈ 827 µM).

For `Cc1nn(C)cc1-c1nc2[nH]c(C(=O)N3CCC(N(C)C)CC3)nc2c(N2CCOCC2)c1F` [compound 97, [4-(Dimethylamino)piperidin-1-yl][5-(1,3-dimethyl-1H-pyrazol-4-yl)-6-fluoro-7-(morpholin-4-yl)-3H-imidazo[4,5-b]pyridin-2-yl]methanone], the half-inhibitory concentration (IC50) in series [1] was 3 nM; in series [1] (setting [8]), 3 nM; against PI3Kγ, 961 nM; in series [4], 183 nM; against PI3Kβ, over 10000 nM; against PI3Kα it was 1080 nM. Also, the solubility at 30 min in series [3] (setting [6]) was over 936 µg/mL; in series [3] (setting [7]), over 923 µg/mL.

With `C[C@@H]1CN(C2CCN(C(=O)c3nc4c(N5CCOCC5)nc(-c5cnn(C)c5)nc4[nH]3)CC2)C[C@H](C)O1` [compound 5, {4-[cis-2,6-Dimethylmorpholin-4-yl]piperidin-1-yl}[2-(1-methyl-1H-pyrazol-4-yl)-6-(morpholin-4-yl)-9H-purin-8-yl]methanone], the half-inhibitory concentration (IC50) against PI3Kγ is 1180 nM; in series [4] it was 111 nM; against PI3Kα, over 1000 nM. Besides, the ED50 in series [5] is 1.6 mg/Kg, bid. Besides, the solubility at 30 min was 834 µg/mL (≈ 1640 µM) in series [3] (setting [6]) and 286 µg/mL (≈ 561 µM) in series [3] (setting [7]).

On to `Cn1cc(-c2cc(N3CCOCC3)c3nc(C(=O)N4CCC5(CC4)COC5)[nH]c3n2)cn1` [compound 78, [5-(1-Methyl-1H-pyrazol-4-yl)-7-(morpholin-4-yl)-3H-imidazo[4,5-b]pyridin-2-yl](2-oxa-7-azaspiro[3.5]non-7-yl)methanone], for which the IC50 in series [1] was 13 nM; in series [1] (setting [8]) it was 13 nM; against PI3Kγ it was 640 nM; in series [4] it was 28 nM; against PI3Kβ it was over 10000 nM; against PI3Kα, 2190 nM. Further, the “Percent inhibition of BAL eosinophil count at 3 mg/kg” value (“Percent inhibition” below) in series [2] stood at 45%.

Take `Cc1nn(C)cc1-c1nc2c(nc(C(=O)N3CCC(N4CCOCC4)CC3)n2C)c(N2CCOCC2)c1F` [compound 87, [5-(1,3-Dimethyl-1H-pyrazol-4-yl)-6-fluoro-3-methyl-7-(morpholin-4-yl)-3H-imidazo[4,5-b]pyridin-2-yl][4-(morpholin-4-yl)piperidin-1-yl]methanone]: the half-maximal inhibitory concentration (IC50) in series [1] was 3 nM; in series [1] (setting [8]), 3 nM; against PI3Kγ it was over 10000 nM; in series [4] it was 47 nM; on PI3Kβ, over 10000 nM; against PI3Kα, over 10000 nM. For the same molecule, in series [2], the ED50 is 0.8 mg/kg, bid.

As to `Cc1nn(C)cc1-c1cc(N2CCOCC2)c2nc(C(=O)N3CCC(N4CCOCC4)CC3)[nH]c2n1` [compound 94, [5-(1,3-Dimethyl-1H-pyrazol-4-yl)-7-(morpholin-4-yl)-3H-imidazo[4,5-b]pyridin-2-yl][4-(morpholin-4-yl)piperidin-1-yl]methanone], the half-inhibitory concentration (IC50) in series [1] came out at 4 nM; in series [1] (setting [8]), 4 nM; against PI3Kγ, 3030 nM; in series [4] it was 11 nM; against PI3Kβ, 9910 nM; against PI3Kα, 971 nM. For the same molecule, the solubility at 30 min in series [3] (setting [6]) is 808 µg/mL (≈ 1630 µM); in series [3] (setting [7]), 754 µg/mL (≈ 1520 µM).

As to `Cn1cc(-c2nc(N3CCOCC3)c3nc(C(=O)N4CCC5(CC4)COC5)[nH]c3n2)cn1` [compound 3, [2-(1-Methyl-1H-pyrazol-4-yl)-6-(morpholin-4-yl)-9H-purin-8-yl](2-oxa-7-azaspiro[3.5]non-7-yl)methanone], the concentration for half-maximal inhibition (IC50) in series [1] is 15 nM; in series [1] (setting [8]), 15 nM; against PI3Kγ it was over 1000 nM; in series [4], 55 nM; on PI3Kβ, over 10000 nM; against PI3Kα it was over 1000 nM. In addition, the “Percent inhibition” value in series [2] turned out to be 46%.

On to `Cc1nn(C)cc1-c1nc2[nH]c(C(=O)N3CCC(C(C)(C)O)CC3)nc2c(N2CCOCC2)c1F` [compound 84, [5-(1,3-Dimethyl-1H-pyrazol-4-yl)-6-fluoro-7-(morpholin-4-yl)-3H-imidazo[4,5-b]pyridin-2-yl][4-(2-hydroxypropan-2-yl)piperidin-1-yl]methanone], for which, in series [1], the IC50 was 5 nM. The “Percent inhibition” value in series [2] amounted to 26%.

With `Cn1cc(-c2nc(N3CCOCC3)c3nc(C(=O)N4CCC(N5CCOCC5)CC4)[nH]c3n2)cn1` [Compound No. 58, [2-(1-methyl-1H-pyrazol-4-yl)-6-(morpholin-4-yl)-9H-purin-8-yl][4-(morpholin-4-yl)piperidin-1-yl]methanone], the IC50 is 14 nM in series [1]; 14 nM in series [1] (setting [8]); over 1000 nM on PI3Kγ; 6 nM in series [4]; over 10000 nM on PI3Kβ; over 1000 nM against PI3Kα. Moreover, the ED50 is given as 0.3 mg/kg, bid in series [2] and 0.1 mg/Kg, bid in series [5]. The solubility at 30 min in series [3] (setting [6]) is over 1200 µg/mL; in series [3] (setting [7]), 170 µg/mL (≈ 353 µM).
